Measurements published in ChEMBL document CHEMBL3509421, “FDA drug approval package for diclofenac acid (NDA 22-202 CP, Ref ID: 3374276)”.

What was measured:
[1] = Mean Tmax of diclofenac following single oral dosing of 50 mg diclofenac potassium soft gelatin capsule in healthy human; format: ADME, organism-based; design: dietary status Fasting, dose 50 mg, dosed compound id 2.46815e+06, dosed compound name Diclofenac potassium, gender Mixed, regimen Single, route oral, study doses 25/50 mg; details: both, plasma
clinical [2] = details: both, human, plasma, po, 25 mg
Description: (§3) Mean terminal elimination half-life of diclofenac following single oral dosing of 25 mg diclofenac potassium softgel capsule in healthy human

[3] = Mean median Tmax value of diclofenac potassium following oral dosing of Cataflam 50 mf tablet in healthy human; format: ADME, organism-based; design: dietary status Fasting, dose 50 mg, dosed compound id 2.46815e+06, dosed compound name Diclofenac potassium, gender Mixed, regimen Single, route oral, study doses 50 mg; details: both, plasma, 50 mg, read-out: Median Tmax
[4] = Mean maximum Tmax value of diclofenac potassium following oral dosing of PRO-513 50 mg sachet in healthy human; format: ADME, organism-based; design: dietary status Fasting, dose 50 mg, dosed compound id 2.46815e+06, dosed compound name Diclofenac potassium, gender Mixed, regimen Single, route oral, study doses 50 mg; details: both, plasma, read-out: Maximum Tmax
[5] = Geometric mean for Cmax of diclofenac following single oral dosing of 18 mg Zorvolex capsule in healthy human; format: ADME, organism-based; design: dietary status Fasting, dose 18 mg, dosed compound id 2.46815e+06, dosed compound name Diclofenac, gender Mixed, regimen Single, route oral; details: both, plasma
[6] = Mean Tmax of diclofenac following single oral dosing of 25 mg diclofenac potassium softgel capsule in healthy human; format: ADME, organism-based; design: dietary status Fed, dose 25 mg, dosed compound id 2.46815e+06, dosed compound name Diclofenac potassium, gender Mixed, regimen Single, route oral, study doses 25/50 mg; details: both, plasma
clinical [7] = details: both, human, plasma, po, 35 mg
[8] = Mean Cmax of diclofenac potassium following oral dosing of Cataflam 50 mf tablet in healthy human; format: ADME, organism-based; design: dietary status Fasting, dose 50 mg, dosed compound id 2.46815e+06, dosed compound name Diclofenac potassium, gender Mixed, regimen Single, route oral, study doses 50 mg; details: both, plasma, 50 mg
clinical [9] = details: both, human, plasma, po, 50 mg
[10] = Mean Kel of diclofenac potassium following oral dosing of Cataflam 50 mf tablet in healthy human; format: ADME, organism-based; design: dietary status Fasting, dose 50 mg, dosed compound id 2.46815e+06, dosed compound name Diclofenac potassium, gender Mixed, regimen Single, route oral, study doses 50 mg; details: both, plasma, 50 mg
[11] = Mean AUC (0-t) value of diclofenac following single oral dosing of 35 mg Zorvolex capsule in healthy human; format: ADME, organism-based; design: dietary status Fed, dose 35 mg, dosed compound id 2.46815e+06, dosed compound name Diclofenac, gender Mixed, regimen Single, route oral; details: both, plasma
[12] = Mean Cmax value of diclofenac following single oral dosing of 50 mg Cataflam tablet in healthy human; format: ADME, organism-based; design: dietary status Fed, dose 50 mg, dosed compound id 2.46815e+06, dosed compound name Diclofenac potassium, gender Mixed, regimen Single, route oral; details: both, plasma
[13] = (§1) Mean AUC (0-t) of diclofenac following single oral dosing of 50 mg diclofenac potassium softgel capsule in healthy human; format: ADME, organism-based; design: dietary status Fasting, dose 50 mg, dosed compound id 2.46815e+06, dosed compound name Diclofenac potassium, gender Mixed, regimen Single, route oral, study doses 25/50 mg; details: both, plasma
clinical [14] = details: both, human, plasma, po, 25 mg; remark: listed apart in the source
Description: as §3

[15] = Mean terminal elimination half-life of diclofenac potassium following oral dosing of Cataflam 50 mf tablet in healthy human; details: both, plasma, 50 mg
[16] = Minimum tmax of diclofenac following single oral dosing of 50 mg Cataflam tablet in healthy human; format: ADME, organism-based, Plasma; design: dietary status Fasting, dose 50 mg, dosed compound id 2.46815e+06, dosed compound name Diclofenac potassium, gender Mixed, regimen Single, route oral; details: in vivo
[17] = as §1; format: ADME, organism-based; design: dietary status Fed, dose 50 mg, dosed compound id 2.46815e+06, dosed compound name Diclofenac potassium, gender Mixed, regimen Single, route oral, study doses 25/50 mg; details: both, plasma
[18] = Maximum tmax of diclofenac following single oral dosing of 18 mg Zorvolex capsule in healthy human; format: ADME, organism-based, Plasma; design: dietary status Fasting, dose 18 mg, dosed compound id 2.46815e+06, dosed compound name Diclofenac, gender Mixed, regimen Single, route oral; details: in vivo
[19] = Mean median Tmax value of diclofenac potassium following oral dosing of PRO-513 50 mg sachet in healthy human; format: ADME, organism-based; design: dietary status Fed, dose 50 mg, dosed compound id 2.46815e+06, dosed compound name Diclofenac potassium, gender Mixed, regimen Single, route oral, study doses 50 mg; details: both, plasma, read-out: Median Tmax
[20] = (§2) Mean minimum Tmax value of diclofenac potassium following oral dosing of PRO-513 50 mg sachet in healthy human; format: ADME, organism-based, Plasma; design: dietary status Fed, dose 50 mg, dosed compound id 2.46815e+06, dosed compound name Diclofenac potassium, gender Mixed, regimen Single, route oral, study doses 50 mg; details: in vivo
[21] = as §2; format: ADME, organism-based, Plasma; design: dietary status Fasting, dose 50 mg, dosed compound id 2.46815e+06, dosed compound name Diclofenac potassium, gender Mixed, regimen Single, route oral, study doses 50 mg; details: in vivo
[22] = Mean Tmax of diclofenac following single oral dosing of 50 mg diclofenac potassium softgel capsule in healthy human; format: ADME, organism-based; design: dietary status Fasting, dose 50 mg, dosed compound id 2.46815e+06, dosed compound name Diclofenac potassium, gender Mixed, regimen Single, route oral, study doses 25/50 mg; details: both, plasma
[23] = Geometric mean for AUC (0-infinity) of diclofenac following single oral dosing of 50 mg Cataflam tablet in healthy human; format: ADME, organism-based; design: dietary status Fed, dose 50 mg, dosed compound id 2.46815e+06, dosed compound name Diclofenac potassium, gender Mixed, regimen Single, route oral, time infinity; details: both, plasma, read-out: AUC (0-infinity)
[24] = Minimum tmax of diclofenac following single oral dosing of 35 mg Zorvolex capsule in healthy human; format: ADME, organism-based, Plasma; design: dietary status Fasting, dose 35 mg, dosed compound id 2.46815e+06, dosed compound name Diclofenac, gender Mixed, regimen Single, route oral; details: in vivo
[25] = Mean AUC(0-t) of diclofenac potassium following oral dosing of Cataflam 50 mf tablet in healthy human; format: ADME, organism-based; design: dietary status Fed, dose 50 mg, dosed compound id 2.46815e+06, dosed compound name Diclofenac potassium, gender Mixed, regimen Single, route oral, study doses 50 mg; details: both, plasma, 50 mg
[26] = Mean apparent terminal elimination rate constant value of diclofenac following single oral dosing of 18 mg Zorvolex capsule in healthy human; format: ADME, organism-based, Plasma; design: dietary status Fasting, dose 18 mg, dosed compound id 2.46815e+06, dosed compound name Diclofenac, gender Mixed, regimen Single, route oral; details: in vivo
[27] = Minimum tmax of diclofenac following single oral dosing of 18 mg Zorvolex capsule in healthy human; format: ADME, organism-based, Plasma; design: dietary status Fasting, dose 18 mg, dosed compound id 2.46815e+06, dosed compound name Diclofenac, gender Mixed, regimen Single, route oral; details: in vivo
[28] = Mean AUC (0-infinity) value of diclofenac following single oral dosing of 35 mg Zorvolex capsule in healthy human; format: ADME, organism-based; design: time infinity, dietary status Fasting, dose 35 mg, dosed compound id 2.46815e+06, dosed compound name Diclofenac, gender Mixed, regimen Single, route oral; details: both, plasma, read-out: AUC (0-infinity)
[29] = Geometric mean for AUC (0-infinity) of diclofenac following single oral dosing of 35 mg Zorvolex capsule in healthy human; format: ADME, organism-based; design: time infinity, dietary status Fasting, dose 35 mg, dosed compound id 2.46815e+06, dosed compound name Diclofenac, gender Mixed, regimen Single, route oral; details: both, plasma, read-out: AUC (0-infinity)
clinical [30] = details: both, human, plasma, po, 25 mg; remark: listed apart in the source
[31] = Mean Tmax of diclofenac following single oral dosing of 25 mg diclofenac potassium soft gelatin capsule in healthy human; format: ADME, organism-based; design: dietary status Fasting, dose 25 mg, dosed compound id 2.46815e+06, dosed compound name Diclofenac potassium, gender Mixed, regimen Single, route oral, study doses 25/50 mg; details: both, plasma
[32] = Mean AUC(0-infinity) of diclofenac following single oral dosing of 25 mg diclofenac potassium soft gelatin capsule in healthy human; format: ADME, organism-based; design: time infinity, dietary status Fasting, dose 25 mg, dosed compound id 2.46815e+06, dosed compound name Diclofenac potassium, gender Mixed, regimen Single, route oral, study doses 25/50 mg; details: both, plasma, read-out: AUC (0-infinity)

With `O=C(O)Cc1ccccc1Nc1c(Cl)cccc1Cl` [DICLOFENAC] the Tmax [1] was 28.8 min, the half-life (clinical [2]) was 62.4 min and the Tmax [3] was 30 min. The Tmax [4] was 40.2 min, the Cmax [5] was 454 ng/mL and the Tmax [6] was 61.2 min. For the same compound, the half-life (clinical [7]) was 135 min, the Cmax [8] was 1160 ng/mL and the half-life (clinical [9]) was 87 min. For the same compound, the k el [10] was 0.000164 s⁻¹, the AUC(0-t) [11] was 861 ng·h/mL and the Cmax [12] was 713 ng/mL. The AUC(0-t) [13] was 1520 ng·h/mL, the half-life (clinical [14]) was 66.6 min and the half-life [15] was 77.4 min. For the same compound, the “Minimum Tmax” value [16] was 15 min, the AUC(0-t) [17] was 1420 ng·h/mL and the “Maximum Tmax” value [18] was 270 min. For the same compound, the Tmax [19] was 10.2 min, the “Minimum Tmax” value [20] was 4.8 min and the “Minimum Tmax” value [21] was 10.2 min. For the same compound, the Tmax [22] was 30.6 min, the AUC(0-inf) [23] was 1180 ng·h/mL and the “Minimum Tmax” value [24] was 28.2 min. The AUC(0-t) [25] was 1060 ng·h/mL, the lambda-z [26] was 0.399 h⁻¹ and the “Minimum Tmax” value [27] was 30 min. For the same compound, the AUC(0-inf) [28] was 1000 ng·h/mL, the AUC(0-inf) [29] was 979 ng·h/mL and the half-life (clinical [30]) was 81 min. For the same compound, the Tmax [31] was 27 min and the AUC(0-inf) [32] was 603 ng·h/mL.
